`*/C=C/CC(C*)c1ccccc1` (repeat unit) came in with a glass transition temperature of 14.00 °C.

Turning to `*/N=N/c1ccc(NC(=O)CCC(=O)Nc2ccc(*)cc2)cc1` (repeat unit), the glass transition temperature amounted to 220.00 °C.

The compound `*C(=O)CCC1(CCC(=O)N2CCN(*)CC2)c2ccccc2-c2ccccc21` (repeat unit) returned a glass transition temperature of 145.00 °C.

`*C(=O)NCCCCCCNC(=O)c1ncn(C)c1*` (repeat unit): the glass transition temperature was 86.00 °C.

As for `*C(=O)Nc1ccc(-c2ccc(NC(=O)N3CC(C)N(*)CC3C)cc2)cc1` (repeat unit), the glass transition temperature was determined as 250.00 °C.

For `*C(=O)c1ccc2c(c1)C(=O)N(C1CCC(CC3CCC(N4C(=O)c5ccc(*)cc5C4=O)C(C)C3)CC1C)C2=O` (repeat unit), the glass transition temperature came to 240.00 °C.

`*C/C=C/COC(=O)C(Cc1ccccc1)NC(=O)CCCCC(=O)NC(Cc1ccccc1)C(=O)O*` (repeat unit) showed a glass transition temperature of 61.00 °C.

Compound `*C/C=C/CS(*)(=O)=O` (repeat unit) displayed a glass transition temperature of 86.00 °C.

The compound `*C/C=C/C[Si](*)(C)CCCOc1ccc2ccccc2c1` (repeat unit) showed a glass transition temperature of -1.00 °C.

Turning to `*C1CCC(CC2CCC(N3C(=O)C4C5C=CC(C6C(=O)N(*)C(=O)C56)C4C3=O)C(C)C2)CC1C` (repeat unit), the glass transition temperature is 241.00 °C.

The compound `*CC(*)c1ccc([Si](O[Si](C)(C)C)(O[Si](C)(C)C)O[Si](C)(C)C)cc1` (repeat unit) displayed a glass transition temperature of 114.00 °C.

Regarding `*CC(*)c1cccc(NC(C)=O)c1` (repeat unit), the glass transition temperature came out at 163.00 °C.

The compound `*CC(*)c1ccccc1Br` (repeat unit) displayed a glass transition temperature of 149.00 °C.

Compound `*CC(*)c1ccccc1C` (repeat unit) came in with a glass transition temperature of 131.00 °C.

In turn, `*CC(*)c1ccccc1C(=O)NC` (repeat unit) displayed a glass transition temperature of 189.00 °C.

`*CC(*)c1ccccc1C(=O)OCCCCC` (repeat unit) yielded a glass transition temperature of 92.00 °C.

On to `*CC(*)c1ccccc1C(F)(F)F` (repeat unit), for which the glass transition temperature worked out at 165.00 °C.

As to `*CC(*)c1ccccc1COC` (repeat unit), the glass transition temperature turned out to be 89.00 °C.

Regarding `*CC(*)c1ccccc1COCCC` (repeat unit), the glass transition temperature turned out to be 97.00 °C.

In the case of `*CC(*)c1ccccc1COCCCCCCCC` (repeat unit), the glass transition temperature stood at 13.00 °C.

Take `*CC(*)c1ccccc1F` (repeat unit): the glass transition temperature amounted to 160.50 °C.

On to `*CC(*)c1ccccc1O` (repeat unit), for which the glass transition temperature was 172.00 °C.

`*CC(*)c1nnn[nH]1` (repeat unit): the glass transition temperature turned out to be 72.00 °C.

For `*CC(*)n1c2ccccc2c2c3ccccc3ccc21` (repeat unit), the glass transition temperature was 291.50 °C.

The compound `*CC(*)n1ccc2ccccc21` (repeat unit) gave a glass transition temperature of 19.00 °C.

In turn, `*CC(=O)NCCCCCCNC(=O)CC1COC(*)CO1` (repeat unit) showed a glass transition temperature of 73.00 °C.

In turn, `*CC(C)(C)C1CC=C(*)CC1` (repeat unit) came in with a glass transition temperature of 77.00 °C.

The compound `*CC(CCCCCCCCCCCCCCCC)C1C(=O)N(CCCCNC(=O)C(F)(F)C(F)(F)C(F)(F)C(F)(F)C(F)(F)C(F)(F)C(F)(F)F)C(=O)C1*` (repeat unit) gave a glass transition temperature of 63.00 °C.

On to `*CC(OC)C1C(=O)N(c2ccc(N(C)C)cc2)C(=O)C1*` (repeat unit), for which the glass transition temperature was 221.00 °C.

`*CC(OCCCC)C1(C)C(=O)OC(=O)C1(*)C` (repeat unit): the glass transition temperature was 197.00 °C.

As to `*CC(OCCCC)C1C(=O)OC(=O)C1*` (repeat unit), the glass transition temperature came out at 118.00 °C.

`*CC(c1ccccc1)C1C(=O)N(C)C(=O)C1*` (repeat unit) came in with a glass transition temperature of 205.00 °C.

As to `*CC(c1ccccc1)C1C(=O)N(CCCCCCCCCCCC)C(=O)C1*` (repeat unit), the glass transition temperature worked out at 70.00 °C.

Compound `*CC(c1ccccc1)C1C(=O)N(CCN(CC)c2ccc(/N=N/c3ccc([N+](=O)[O-])cc3)cc2)C(=O)C1*` (repeat unit) returned a glass transition temperature of 172.00 °C.

Turning to `*CC(c1ccccc1)C1C(=O)N(c2ccc(NC(=O)OCC3CCCN3c3ccc([N+](=O)[O-])cc3)cc2)C(=O)C1*` (repeat unit), the glass transition temperature turned out to be 208.00 °C.

Compound `*CC1(C)CC(*)(C)C(=O)OC1=O` (repeat unit) displayed a glass transition temperature of 144.00 °C.

As for `*CC1CC(*)C(=O)OC1=O` (repeat unit), the glass transition temperature turned out to be 140.00 °C.

In turn, `*CC1CC(*)C(OC(=O)CCCCCCCCCCOc2ccc(-c3ccc(C#N)cc3)cc2)C1` (repeat unit) came in with a glass transition temperature of 30.50 °C.

For `*CC1CCC(CNC(=O)CCCCC(=O)N*)CC1` (repeat unit), the glass transition temperature is 113.00 °C.

Regarding `*CC1CCCC(Cn2c(=O)c3cc4c(=O)n(*)c(=O)c4cc3c2=O)C1` (repeat unit), the glass transition temperature came to 263.00 °C.

On to `*CCC(C(=O)OC)C(*)C(=O)OC` (repeat unit), for which the glass transition temperature is 31.20 °C.

`*CCC(C)C(*)C` (repeat unit) registered a glass transition temperature of -26.00 °C.

Consider `*CCC1C(=O)N(C)C(=O)C1*` (repeat unit), for which the glass transition temperature came to 141.20 °C.

On to `*CCC1C(=O)N(CC)C(=O)C1*` (repeat unit), for which the glass transition temperature stood at 109.20 °C.

For the compound `*CCC1C(=O)N(CCCCCCCCCCCCCC)C(=O)C1*` (repeat unit), the glass transition temperature was determined as 62.40 °C.

In turn, `*CCC1CC(*)C2C3CC(C12)C(C)(C(=O)OC)C3` (repeat unit) came in with a glass transition temperature of 146.00 °C.

With `*CCC1CC(*)C2C3CCC(C3)C12` (repeat unit), the glass transition temperature stood at 164.00 °C.

Compound `*CCC1CC2C(CC(*)C2OC(=O)CCCCCCCCCCOc2ccc(-c3ccc(C#N)cc3)cc2)C1OC(=O)CCCCCCCCCCOc1ccc(-c2ccc(C#N)cc2)cc1` (repeat unit) yielded a glass transition temperature of 23.50 °C.

Turning to `*CCCC(*)(C)C` (repeat unit), the glass transition temperature was -20.00 °C.

`*CCCC1(C)CCN(C(=O)CCC(=O)N2CCC(*)(C)CC2)CC1` (repeat unit) came in with a glass transition temperature of 99.00 °C.

The compound `*CCCC1(C)CCN(C(=O)CCCC(=O)N2CCC(*)(C)CC2)CC1` (repeat unit) gave a glass transition temperature of 58.00 °C.

Turning to `*CCCC1(CCCNC(=O)CCC2(CCC(=O)N*)c3ccccc3-c3ccccc32)c2ccccc2-c2ccccc21` (repeat unit), the glass transition temperature was 165.00 °C.

As for `*CCCCCCCCCCNC(=O)CCCCC(=O)N*` (repeat unit), the glass transition temperature worked out at 45.00 °C.

For `*CCCCCCCCCCOC(=O)CCCCCNC(=O)CCCCC(=O)NCCCCCC(=O)O*` (repeat unit), the glass transition temperature is -12.00 °C.

On to `*CCCCCCCCCNC(=O)C(OC)C(OC)C(=O)N*` (repeat unit), for which the glass transition temperature is 84.00 °C.

With `*CCCCCCNC(=O)CCCC(=O)O*` (repeat unit), the glass transition temperature is -18.00 °C.

The compound `*CCCCCCNC(=O)CCP(C)(=O)CCC(=O)N*` (repeat unit) gave a glass transition temperature of 57.50 °C.

As to `*CCCCOC(=O)CCC(=O)O*` (repeat unit), the glass transition temperature was -32.00 °C.

For the compound `*CCCCOC(=O)CCCC(=O)O*` (repeat unit), the glass transition temperature is -36.50 °C.

`*CCCCOC(=O)CCCCCNC(=O)CCCCC(=O)NCCCCCC(=O)O*` (repeat unit) had a glass transition temperature of -15.00 °C.

`*CCCNC(=O)CCCCC(=O)NCCCO*` (repeat unit) had a glass transition temperature of 34.00 °C.

In turn, `*CCCP(CCCNC(=O)CCCCC(=O)N*)c1ccccc1` (repeat unit) gave a glass transition temperature of 49.00 °C.

The compound `*CCN(CCOC(=O)CCC#CC#CCCC(=O)O*)c1ccc([N+](=O)[O-])cc1` (repeat unit) had a glass transition temperature of 30.00 °C.

`*CNC(=O)CCCCC(=O)NCC1COC(*)CO1` (repeat unit) gave a glass transition temperature of 93.00 °C.

The compound `*Cc1cccc(CNC(=O)c2cc(C(=O)N*)cc(C(C)(C)C)c2)c1` (repeat unit) came in with a glass transition temperature of 192.00 °C.

On to `*OC(=O)C(Cc1ccccc1)NC(=O)CCCCC(=O)NC(Cc1ccccc1)C(=O)OC1COC2C(*)COC12` (repeat unit), for which the glass transition temperature came to 97.50 °C.

Consider `*OC(=O)CCC(=O)OC1COC2C(*)COC12` (repeat unit), for which the glass transition temperature amounted to 77.00 °C.

Compound `*OC(C)CCC(C)OC(=O)CCCCCCCCC(*)=O` (repeat unit) registered a glass transition temperature of -66.00 °C.

The compound `*O[Si](C)(C)CCC/N=C/c1cc(Cc2ccc(O)c(/C=N/CCC[Si](*)(C)C)c2)ccc1O` (repeat unit) gave a glass transition temperature of -51.62 °C.

As to `*O[Si](C)(C)CCCC(=O)Oc1ccc(/C=N/c2ccc(/N=C/c3ccc(OC(=O)CCC[Si](*)(C)C)cc3)cc2)cc1` (repeat unit), the glass transition temperature came to 60.00 °C.

Regarding `*O[Si](C)(C)CCCC(=O)Oc1ccc(/C=N/c2ccc(Oc3ccc(/N=C/c4ccc(OC(=O)CCC[Si](*)(C)C)cc4)cc3)cc2)cc1` (repeat unit), the glass transition temperature is 52.00 °C.

The compound `*O[Si](C)(C)O[Si](C)(C)O[Si](C)(C)OC(C)CCC(*)C` (repeat unit) returned a glass transition temperature of -90.00 °C.

Turning to `*O[Si](C)(C)O[Si](C)(C)O[Si](C)(C)O[Si](C)(C)OC(C)CCC(*)C` (repeat unit), the glass transition temperature is -96.00 °C.

Compound `*O[Si](C)(C)O[Si](C)(C)O[Si](C)(C)O[Si](C)(C)O[Si](C)(C)OC(C)CCC(*)C` (repeat unit) displayed a glass transition temperature of -106.00 °C.

`*O[Si](C)(CCC(F)(F)F)CCC(F)(F)C(F)(F)C(F)(F)C(F)(F)C(F)(F)C(F)(F)CC[Si](*)(C)CCC(F)(F)F` (repeat unit) came in with a glass transition temperature of -24.00 °C.

Consider `*c1ccc2c(c1)C(=O)N(C1CCC(CC3CCC(N4C(=O)c5ccc(C(*)(C(F)(F)F)C(F)(F)F)cc5C4=O)C(C)C3)CC1C)C2=O` (repeat unit), for which the glass transition temperature was determined as 225.00 °C.

Values taken from the PolyMetriX glass transition set.
